The text below walks through data of PubChem BioAssay (NCI).

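96-well plates; 48 h exposure; 5 concentrations. Endpoints by linear interpolation between flanking doses. Not reached: highest tested concentration assigned. Abbreviation: GI50, concentration required for 50% inhibition of growth. The concentration for full growth arrest is given as TGI.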

The test system of one test is RXF-631 renal. Nature of the test: growth of human tumour cells (NCI), 48 h.
Take `Cc1ccc(S(=O)(=O)C(CC(=O)N2CCCC2)C(=O)c2ccccc2)cc1` (configuration not stated): the TGI was greater than 100 µM.

`CC1(C)CC(/C=C2/OC(=O)c3ccccc32)=C(C#N)C(=O)O1` returned a TGI greater than 100 µM.

As to `Cc1nc2c(nc1Cl)nc(Oc1ccc(Cl)cc1)c1ccccc12`, the TGI is greater than 100 µM.

The compound `CC(=O)Nc1ccccc1Sc1ccccc1` displayed a TGI greater than 100 µM.

On to `COC(=O)C[C@H]1CCC2(OCCO2)[C@]1(C)C(=O)OC`, for which the TGI was greater than 100 µM.

As to `CCCCCCCCCC[C@@H](O)[C@@H]1CC[C@H]([C@H]2CC[C@@H]([C@@H](O)CCCCCCCCCC[C@H]3CC(CC(C)=O)C(=O)O3)O2)O1` (some centres not stated), the TGI is 38.3 µM.

Take `CC12CC[C@@H](C(C)(C)O)C1[C@@H](O)CC1(C)C2CCC2[C@@]3(C)CC[C@H](O)C(C)(C)C3C(O)C[C@]21C` (some centres not stated): the TGI amounted to 69 µM.

`CCOC(=O)NC(=O)c1cn(C2OC(COC(=O)CCCCCCCCC(=O)OCC3OC(n4cc(C(=O)NC(=O)OCC)c(=O)[nH]c4=O)C(O)C3O)C(O)C2O)c(=O)[nH]c1=O` (configuration not stated) displayed a TGI greater than 100 µM.

The compound `COc1ccc(CNc2cc(OC)c(OC)c(OC)c2)cc1` displayed a TGI greater than 100 µM.

Take `COc1ccccc1C1C(C(=O)Nc2ccccc2)=C(C)NC(C)=C1C(=O)Nc1ccccc1`: the TGI is greater than 100 µM.

Consider `OCc1ccc2[n+](c1)CCC1c3ccccc3NC21` (configuration not stated), for which the TGI is […].

`CN(C(=O)C12C3C4C1C1C2C3C41C(=O)C(C)(C)C)C(C)(C)C` (configuration not stated) showed a TGI greater than 100 µM.

The compound `COc1ccc2cc1Oc1ccc(cc1)CC1c3cc(c(OC)cc3CCN1C)Oc1c3c(cc4c1C(C2)N(C)CC4)OCO3` (configuration not stated) registered a TGI of 36 µM.

In turn, `COc1ccc(OC)c(NC(=O)C(=O)C(C(C)=O)c2nc3ccc(Cl)cc3[nH]c2=O)c1` (configuration not stated) displayed a TGI greater than 50 µM.

In the next test the test system is DMS 273 small cell lung. Put plainly: growth of human tumour cells (NCI), 48 h.
In the case of `CC1(Cl)C(=O)NC(=O)N(C2CC(N=[N+]=[N-])C(CO)O2)C1N=[N+]=[N-]` (configuration not stated), the TGI was greater than 100 µM.

`COc1ccc2ccc3c(c2c1)CN1CCc2cc(OC)c(OC)cc2C1C3` (configuration not stated): the TGI was greater than 100 µM.

With `OCCC1(O)CCC(O)CC1` (configuration not stated), the TGI is greater than 100 µM.

In the case of `CCCCNC1=C(C(=O)OCC)C(=O)CO1`, the TGI is greater than 100 µM.

Take `CC(C)CC(=O)[O-].CC(C)CC(=O)[O-].N.N.N.N.[Co+3].[O-][Cl+3]([O-])([O-])[O-]`: the GI50 is greater than 100 µM and the TGI is greater than 100 µM.

In the case of `COC(=O)CC(=O)C[P+](c1ccccc1)(c1ccccc1)c1ccccc1`, the TGI is greater than 218 µM.

Consider `CCCCN(CCCC)C(=O)C(=O)C(C#N)c1ccc(C)cc1` (configuration not stated), for which the TGI is greater than 100 µM.

On to `Cc1ccc(S(=O)(=O)C(CC(=O)N2CCCC2)C(=O)c2ccccc2)cc1` (configuration not stated), for which the TGI is greater than 100 µM.

In turn, `CC1(C)CC(/C=C2/OC(=O)c3ccccc32)=C(C#N)C(=O)O1` yielded a TGI greater than 100 µM.

As to `Cc1nc2c(nc1Cl)nc(Oc1ccc(Cl)cc1)c1ccccc12`, the TGI is greater than 100 µM.

On to `CC(=O)Nc1ccccc1Sc1ccccc1`, for which the TGI was greater than 100 µM.

Turning to `CC1OC(n2cc(F)c(=O)[nH]c2=O)CCC1O` (configuration not stated), the TGI was greater than 100 µM.

In the case of `COC(=O)C[C@H]1CCC2(OCCO2)[C@]1(C)C(=O)OC`, the TGI was greater than 100 µM.

In the case of `CCCCCCCCCC[C@@H](O)[C@@H]1CC[C@H]([C@H]2CC[C@@H]([C@@H](O)CCCCCCCCCC[C@H]3CC(CC(C)=O)C(=O)O3)O2)O1` (some centres not stated), the TGI came to 32.8 µM.

`CCOC(=O)NC(=O)c1cn(C2OC(COC(=O)CCCCCCCCC(=O)OCC3OC(n4cc(C(=O)NC(=O)OCC)c(=O)[nH]c4=O)C(O)C3O)C(O)C2O)c(=O)[nH]c1=O` (configuration not stated) had a TGI greater than 100 µM.

`Cc1ccc(C)c(NC(=O)CC/C(=N\NC(=O)C(=O)NN)C(C)C(=O)c2ccc(O)cc2)c1` (configuration not stated) yielded a TGI greater than 100 µM.

Compound `N=C1CSC2=NC3=C(CCC/C3=C\c3ccccc3)C(c3ccccc3)N12` (configuration not stated) came in with a TGI of 15.8 µM.

In turn, `COc1ccc(CNc2cc(OC)c(OC)c(OC)c2)cc1` returned a TGI greater than 100 µM.

Turning to `COc1ccccc1C1C(C(=O)Nc2ccccc2)=C(C)NC(C)=C1C(=O)Nc1ccccc1`, the TGI is greater than 100 µM.

Take `OCc1ccc2[n+](c1)CCC1c3ccccc3NC21` (configuration not stated): the TGI was […].

`CCCCCCCCCCCC(=O)CC(=O)c1c(O)cccc1O`: the TGI stood at 32.6 µM.

Consider `CN(C(=O)C12C3C4C1C1C2C3C41C(=O)C(C)(C)C)C(C)(C)C` (configuration not stated), for which the TGI is greater than 100 µM.

`Cc1cc2c(cc1C)[n+](=O)c(C(=O)CC(=O)C(=O)Nc1c(C(C)C)cccc1C(C)C)c(C)n2[O-]` yielded a TGI greater than 100 µM.

Compound `COc1ccc2cc1Oc1ccc(cc1)CC1c3cc(c(OC)cc3CCN1C)Oc1c3c(cc4c1C(C2)N(C)CC4)OCO3` (configuration not stated) yielded a TGI of 17.2 µM.

With `COc1ccc(OC)c(NC(=O)C(=O)C(C(C)=O)c2nc3ccc(Cl)cc3[nH]c2=O)c1` (configuration not stated), the TGI is greater than 50 µM.

`N#CC(C(=N/O)/C(=N/O)C(C#N)c1ccc(Cl)cc1)c1ccc(Cl)cc1` (configuration not stated): the TGI was greater than 100 µM.

Another test deals with M19-MEL melanoma. Put plainly: growth of human tumour cells (NCI), 48 h.
`CC1(Cl)C(=O)NC(=O)N(C2CC(N=[N+]=[N-])C(CO)O2)C1N=[N+]=[N-]` (configuration not stated) came in with a TGI greater than 100 µM.

In the case of `OCCC1(O)CCC(O)CC1` (configuration not stated), the TGI was greater than 100 µM.

`CCCCNC1=C(C(=O)OCC)C(=O)CO1` had a TGI greater than 100 µM.

Regarding `COc1cc(C2c3cc4c(cc3C(NCC(O)CO)C3COC(=O)[C@H]23)OCO4)cc(OC)c1OC` (some centres not stated), the TGI was greater than 100 µM.

`COC(=O)CC(=O)C[P+](c1ccccc1)(c1ccccc1)c1ccccc1` yielded a TGI greater than 218 µM.

The compound `CCCCN(CCCC)C(=O)C(=O)C(C#N)c1ccc(C)cc1` (configuration not stated) had a TGI greater than 100 µM.

`CC1(C)CC(/C=C2/OC(=O)c3ccccc32)=C(C#N)C(=O)O1` gave a TGI greater than 100 µM.

`Cc1nc2c(nc1Cl)nc(Oc1ccc(Cl)cc1)c1ccccc12` yielded a TGI greater than 100 µM.

Take `CC(=O)Nc1ccccc1Sc1ccccc1`: the TGI was greater than 100 µM.

Turning to `CC1OC(n2cc(F)c(=O)[nH]c2=O)CCC1O` (configuration not stated), the TGI was greater than 100 µM.

`COC(=O)C[C@H]1CCC2(OCCO2)[C@]1(C)C(=O)OC`: the TGI was greater than 100 µM.
